Values of other authors, collected in patent publication US20110091889A1, “CENTROSOME-ASSAY” (4SC AG, priority 2008, published 2011).

Target: T1, Eg5 (Homo sapiens, UniProt P52732)
T1 sequence (P52732 1-1056): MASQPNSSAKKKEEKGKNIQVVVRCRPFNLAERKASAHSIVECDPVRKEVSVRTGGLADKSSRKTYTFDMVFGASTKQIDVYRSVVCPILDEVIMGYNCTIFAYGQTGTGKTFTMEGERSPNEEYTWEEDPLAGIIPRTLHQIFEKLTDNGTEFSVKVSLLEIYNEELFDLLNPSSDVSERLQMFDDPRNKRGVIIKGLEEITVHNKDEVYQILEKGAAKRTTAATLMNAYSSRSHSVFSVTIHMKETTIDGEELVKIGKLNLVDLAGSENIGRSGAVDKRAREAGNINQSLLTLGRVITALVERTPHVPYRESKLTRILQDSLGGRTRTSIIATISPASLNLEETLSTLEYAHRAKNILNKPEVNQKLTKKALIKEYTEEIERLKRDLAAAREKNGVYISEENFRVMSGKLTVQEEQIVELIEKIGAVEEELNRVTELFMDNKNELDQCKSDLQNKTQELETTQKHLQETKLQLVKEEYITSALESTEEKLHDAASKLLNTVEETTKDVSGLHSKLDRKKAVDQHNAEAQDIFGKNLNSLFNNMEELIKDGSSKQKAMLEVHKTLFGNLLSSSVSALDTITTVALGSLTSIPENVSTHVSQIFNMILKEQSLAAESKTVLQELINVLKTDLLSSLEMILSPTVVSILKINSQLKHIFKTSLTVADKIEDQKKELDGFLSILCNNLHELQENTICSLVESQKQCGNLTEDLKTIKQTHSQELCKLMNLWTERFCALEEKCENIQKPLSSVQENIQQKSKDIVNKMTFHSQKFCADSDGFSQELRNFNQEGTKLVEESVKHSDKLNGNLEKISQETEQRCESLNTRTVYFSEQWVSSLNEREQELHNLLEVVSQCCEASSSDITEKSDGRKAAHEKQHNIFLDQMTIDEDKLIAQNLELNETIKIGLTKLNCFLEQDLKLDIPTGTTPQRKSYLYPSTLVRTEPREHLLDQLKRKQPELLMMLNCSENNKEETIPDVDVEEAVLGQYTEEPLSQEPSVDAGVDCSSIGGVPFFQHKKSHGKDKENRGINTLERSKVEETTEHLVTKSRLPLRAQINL
Conditions: as compared to the (R)-enantiomer; in vitro and in vivo

- relative potency as inhibitor of Eg5 activity: more potent inhibitor of Eg5 activity
Structure (SMILES): CCOC(=O)C1=C(C)NC(=S)N[C@H]1c1cccc(O)c1 [(S)-monastrol]
